{
  "source": "patent US12527773B2",
  "about": "“Flavi-block: a pan-flavivirus inhibitor” (Baden-Württemberg Stiftung GmbH, priority 2020, dated 2026)",
  "key": {"[1]": {"tested_on": "HCV", "assay": "Antiviral effect on HCV (virus release), Jc1-Luc-IRES in Huh7.5 cells"}, "[2]": {"tested_on": "DENV2", "assay": "Plaque assay of released virus, DENV2-infected Vero cells", "assay_type": "cell-based", "settings": "Dengue virus", "protocol": "(§1) Vero cells were infected with DENV1-4 at an MOI of 1 for 2 h (post infection, p.i., (A)), after which virus was removed, and fresh maintenance medium containing 2% FCS together with the indicated concentration of C10 added. For co-treat condition (c.t., (B)), Vero cells were infected with DENV1-4 at an MOI of 1 in the presence of C10 for 2 h, followed by removal of the virus/C10 inoculums, and addition of fresh 2% fetal calf serum maintenance medium. […] Results represent the mean ±SD for duplicate wells from a single assay, representative of 2 independent experiments (cf. Tables 2A and 2B, infra, for pooled data).\n(§2) Vero and BHK-21 cells were maintained in DMEM media supplemented with 10% heat-inactivated FBS at 37° C. in a humidified incubator supplemented with 5% CO2; A549 cells were maintained in F-12K medium supplemented with 10% heat-inactivated Fetal Bovine Serum (FBS), 2 mM L-glutamine, 50 U/I penicillin, 0.05 mg/l streptomycin. […] Viral titer was subsequently determined by plaque assay (see below).\n(§3) Vero cells were seeded into 24-well plates at a density of 2×10^5 cells/well and grown overnight in culture medium at 37° C. with 5% CO2 prior to infection with RSV, KUNV, ZIKV as indicated. […] The stain was removed by rinsing the cells with tap water, and the viral plaques were counted visually. […]"}, "[3]": {"tested_on": "ZIKV (Asian/Cook Islands/2014)", "assay": "Plaque assay of released virus, ZIKV-infected Vero cells", "assay_type": "cell-based", "settings": "Zika virus", "protocol": "as §1, with “ZIKV” for “DENV1-4”, “infection),” for “infection, p.i., (A)),”, “condition,” for “condition (c.t., (B)),”, “assay (cf. Table” for “assay, representative of”, “2” for “2 independent experiments (cf. Tables 2A and 2B, infra,”\nas §2, with “streptomycin. DENV-1-4 strains, cell culture conditions and Gen-Bank accession numbers, as well as details of RSV strains and culture are known in the art.” for “streptomycin.”\nas §3, with “indicated. BHK-21 cells were used for DENV1-4.” for “indicated.”"}, "[4]": {"biological_target": "T1, DENV capsid protein (Dengue virus type 2, UniProt P29990)", "T1 construct": "recombinant DENV capsid protein; made in house; host or cells: E. coli", "T1 sequence (P29990 1-100)": "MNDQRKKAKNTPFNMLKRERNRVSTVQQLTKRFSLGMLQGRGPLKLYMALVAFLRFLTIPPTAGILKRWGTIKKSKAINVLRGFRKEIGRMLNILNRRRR", "assay": "Crosslinking of recombinant DENV capsid protein (Western blot)", "assay_type": "biochemical", "source_text": "DSS was included as a positive control."}, "[5]": {"tested_on": "ZIKA", "assay": "IC50 in established virological assays (Table 1), ZIKA", "assay_type": "cell-based", "settings": "Zika virus"}, "[6]": {"tested_on": "Huh7.5 cells", "assay": "Cytotoxicity in Huh7.5 cells (Cell Titer Glo, ATP)", "assay_type": "cell-based", "settings": "Huh7.5, 24 h", "protocol": "(§4) Cell viability was measured via the presence of ATP using the Promega Cell Titer Glo kit according to the manufacturer's instructions. Luminescence was detected using the Cytation3 by Biotek. […] (B) The same set of data as shown in FIG. 4A was plotted in a line graph. […] (D) As for FIG. 4A, Huh7.5 cells (1.0×10^4 cells/well) were seeded and incubated with C10 at the indicated concentrations for the indicated time points before measurement of viability using the Promega Cell Titer Glo kit.\n(§5) Cell viability was measured by the presence of ATP using the Promega Cell Titer Glo Kit according to the manufacturer's instructions. Luminescence was detected using a Biotek Cytation3.\n(§6) In the analysis of the data, all values were normalized against the DMSO control and presented in terms of percentage viability. The result is shown in the bar chart of FIG. 4A and the line chart of FIG. 4B; n≥6 with SEM.\n(§7) For this purpose, Huh7.5 cells were seeded, treated and analyzed as described above. The CC50 values for C10, D1, D2, and D3 were calculated using GraphPad Prism6 software with a non-linear regression curve fitting algorithm, as shown in FIG. 4B. It should be noted that the tested compounds precipitate at concentrations above 160 μM in aqueous solutions. For this reason, higher concentrations cannot be tested."}, "[7]": {"assay": "Cytotoxicity in Huh7.5 cells (Cell Titer Glo, ATP)", "assay_type": "cell-based", "settings": "human, Huh7.5 cells; Huh7.5, 24 h", "protocol": "as §4, §5, §6, §7"}, "[8]": {"tested_on": "DENV2", "assay": "RT-qPCR analysis of virus genomes, DENV2", "assay_type": "cell-based", "settings": "Dengue virus", "protocol": "as §1\nViral RNA was extracted using Isolate II RNA extraction kit (Bioline), and the absolute number of RNA copies determined by Taqman One Step RT-qPCR (Applied Biosystems) by extrapolation from a standard curve generated from in vitro—transcribed virus RNA.\nIt was decided to test the ability of C10 to inhibit the flaviviruses DENV1-4, KUNV and ZIKV, in addition to the paramyxovirus RSV, as a control."}},
  "note": "Where two headings read alike, the source gives them in different places.",
  "data": [
    {"smiles": "CCN1/C(=C\\C=C\\c2sc3cc(NC(C)=O)ccc3[n+]2CC)Sc2cc(NC(C)=O)ccc21.[I-]", "note": "[C10, 6-acetamido-2-((1E,3E)-3-(6-acetamido-3-ethylbenzo[d]thiazol-2(3H)-ylidene)prop-1-en-1-yl)-3-ethylbenzo[d]thiazol-3-ium iodide]", "values": [
      {"measurement": "antiviral effect on release of infectious HCV", "setting": "[1]; 24 h treatment", "result": "antiviral effects even at low concentrations"},
      {"measurement": "therapeutic index CC50/EC50", "setting": "[1]; HCV virus release, Huh7.5", "result": "approximately 590"},
      {"measurement": "EC50", "setting": "[2]; read-out: EC50 from plaque assays, DENV2, c.t.", "result": 40, "unit": "nM"},
      {"measurement": "EC50", "setting": "[2]; read-out: EC50 from plaque assays, DENV2, p.i.", "result": 1300, "unit": "nM"},
      {"measurement": "EC50", "setting": "[3]; read-out: EC50 from plaque assays, ZIKV, c.t.", "result": 90, "unit": "nM"},
      {"measurement": "EC50", "setting": "[3]; read-out: EC50 from plaque assays, ZIKV, p.i.", "result": 210, "unit": "nM"},
      {"measurement": "effect on oligomerization state of DENV capsid protein", "setting": "[4]", "result": "enhance the presence of dimers, tetramers and higher oligomeric states"},
      {"measurement": "IC50", "setting": "[5]", "result": "100 to 200", "unit": "nM"},
      {"measurement": "concentration up to which not toxic", "setting": "[6]", "result": "up to 40 μM"},
      {"measurement": "CC50 at 24 h", "setting": "[7]", "result": 106000, "unit": "nM"},
      {"measurement": "EC50", "setting": "[8]; DENV2, read-out: EC50 from RT-qPCR analysis, DENV2, c.t.", "result": 200, "unit": "nM"},
      {"measurement": "EC50", "setting": "[8]; DENV2, read-out: EC50 from RT-qPCR analysis, DENV2, p.i.", "result": "810 ± 480", "unit": "nM"}
    ]}
  ]
}
